Data taken from PubChem BioAssay (NCI).
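Tested at 5 concentrations; 48 h exposure; 96-well plates; endpoints linearly interpolated, else capped at highest concentration. At the TGI there is no net growth.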

Columns and labels:
Assay in all cases: NCI anticancer screen, dose series, 48 h
786-0 renal = test system: 786-0 renal
A498 renal = test system: A498 renal
A549 NSCLC = test system: A549 NSCLC
CAKI-1 renal = test system: CAKI-1 renal
CCRF-CEM leukemia = test system: CCRF-CEM leukemia
COLO 205 colon = test system: COLO 205 colon
DLD-1 colon = test system: DLD-1 colon
DMS 114 small cell lung = test system: DMS 114 small cell lung
DMS 273 small cell lung = test system: DMS 273 small cell lung
EKVX NSCLC = test system: EKVX NSCLC
HCC-2998 colon = test system: HCC-2998 colon
HCT-116 colon = test system: HCT-116 colon
HCT-15 colon = test system: HCT-15 colon
HL-60(TB) leukemia = test system: HL-60(TB) leukemia
HOP-62 NSCLC = test system: HOP-62 NSCLC
HOP-92 NSCLC = test system: HOP-92 NSCLC
HT29 colon = test system: HT29 colon
IGROV1 ovarian = test system: IGROV1 ovarian
K-562 leukemia = test system: K-562 leukemia
KM12 colon = test system: KM12 colon
KM20L2 colon = test system: KM20L2 colon
LOX IMVI melanoma = test system: LOX IMVI melanoma
LXFL 529 NSCLC = test system: LXFL 529 NSCLC
M14 melanoma = test system: M14 melanoma
M19-MEL melanoma = test system: M19-MEL melanoma
MALME-3M melanoma = test system: MALME-3M melanoma
MOLT-4 leukemia = test system: MOLT-4 leukemia
NCI-H226 lung = test system: NCI-H226 lung
NCI-H23 lung = test system: NCI-H23 lung
NCI-H460 lung = test system: NCI-H460 lung
NCI-H522 lung = test system: NCI-H522 lung
OVCAR-3 ovarian = test system: OVCAR-3 ovarian
OVCAR-4 ovarian = test system: OVCAR-4 ovarian
OVCAR-8 ovarian = test system: OVCAR-8 ovarian
RPMI-8226 leukemia = test system: RPMI-8226 leukemia
RXF 393 renal = test system: RXF 393 renal
RXF-631 renal = test system: RXF-631 renal
SF-268 CNS = test system: SF-268 CNS
SF-295 CNS = test system: SF-295 CNS
SF-539 CNS = test system: SF-539 CNS
SK-MEL-5 melanoma = test system: SK-MEL-5 melanoma
SK-OV-3 ovarian = test system: SK-OV-3 ovarian
SN12C renal = test system: SN12C renal
SNB-19 CNS = test system: SNB-19 CNS
SNB-75 CNS = test system: SNB-75 CNS
SNB-78 CNS = test system: SNB-78 CNS
SR leukemia = test system: SR leukemia
SW-620 colon = test system: SW-620 colon
TK-10 renal = test system: TK-10 renal
U251 CNS = test system: U251 CNS
UACC-257 melanoma = test system: UACC-257 melanoma
UACC-62 melanoma = test system: UACC-62 melanoma
UO-31 renal = test system: UO-31 renal
XF 498 CNS = test system: XF 498 CNS
ACHN renal = test system: ACHN renal
HOP-18 NSCLC = test system: HOP-18 NSCLC
OVCAR-5 ovarian = test system: OVCAR-5 ovarian
SK-MEL-2 melanoma = test system: SK-MEL-2 melanoma
SK-MEL-28 melanoma = test system: SK-MEL-28 melanoma

Measured: TGI

Cc1ccc(S(=O)(=O)C(CC(NC=O)S(=O)(=O)c2ccc(C)cc2)NC=O)cc1 (stereo not drawn)
not listed: ACHN renal | HOP-18 NSCLC | OVCAR-5 ovarian | SK-MEL-2 melanoma | SK-MEL-28 melanoma
> 100 µM: all other assays above

CCCCCCCCCCCCCC(=O)NCO
not listed: CAKI-1 renal | DMS 273 small cell lung | K-562 leukemia | MOLT-4 leukemia | SR leukemia
> 100 µM: all other assays above
